Values quoted from earlier work as cited in patent publication US6262108A, “Medicinal use of cromoglycic acid compounds” (Kyoto Pharmaceutical Industries, Ltd., priority 1997, dated 2001).
Where a name gives a salt, the structure may show the parent alone.

What was measured:
[1] = tested on: contact dermatitis and atopic dermatitis; conditions: background statement on conventional antiallergic agents; cited from earlier work
[2] = tested on: type IV allergic reaction; conditions: background statement, postulated, with literature references; cited from earlier work

Row | SMILES | therapeutic effects on contact dermatitis and atopic dermatitis [1] | type IV allergic reaction-inhibitory action [2]
1 | CCOCCn1c(N2CCCN(C)CC2)nc2ccccc21 [emedastine difumarate] | either ineffective or fail to show satisfactory therapeutic effects | failure to show a type IV allergic reaction-inhibitory action
2 | NC1=NCC2c3ccccc3Cc3ccccc3N12 (stereo not drawn) [epinastine hydrochloride] | either ineffective or fail to show satisfactory therapeutic effects | failure to show a type IV allergic reaction-inhibitory action
3 | O=c1[nH]c2ccccc2n1CCCN1CCN(C(c2ccccc2)c2ccccc2)CC1 [oxatomide] | either ineffective or fail to show satisfactory therapeutic effects | failure to show a type IV allergic reaction-inhibitory action
4 | Cc1cccn2c(=O)c(-c3nnn[nH]3)cnc12 [pemirolast potassium] | either ineffective or fail to show satisfactory therapeutic effects | failure to show a type IV allergic reaction-inhibitory action
5 | Cc1ccc2c([nH]c(=O)c3c(=O)cc(C(=O)OCCC(C)C)oc32)c1C [repirinast] | either ineffective or fail to show satisfactory therapeutic effects | failure to show a type IV allergic reaction-inhibitory action
6 | COc1ccc(/C=C/C(=O)Nc2ccccc2C(=O)O)cc1OC [tranilast] | either ineffective or fail to show satisfactory therapeutic effects | failure to show a type IV allergic reaction-inhibitory action
